Data set [1] is described as follows: Peptide stability in simulated gastric fluid. It is filed as in vitro ADME. The conditions noted are these: SGF pH 1.2 with pepsin, 37 °C.
For data set [2], the target named is T1, mouse KOR (Mus musculus, UniProt P33534). Kind of data set: Functional cAMP assay. The settings on record: for KOR activation in cAMP assay (in words): HEK293 cells stably expressing mouse KOR; for Emax: normalized to dyn A 1–13 = 100%, read-out: efficacy cAMP Emax ± SD. It is filed as cell-based. (In general: Changes in cAMP serve as a functional read-out for many G protein-coupled receptors.)

Data set [3] addresses T1, mouse KOR. Kind of data set: Radioligand competition binding assay ([3H]-diprenorphine displacement). The conditions noted are these: 1 nM [3H]-diprenorphine, HEK293 cell membranes stably expressing mouse KOR; read-out: affinity Ki ± SD. For orientation: Loss of bound radioactivity is the signal in a displacement assay; it reports binding, not function.
The target in data set [4] is T2, mouse KOR-EGFP and β-arrestin-2-nano-luciferase (Mus musculus, UniProt P33534).
T2 construct: expressed in transfected cells; host or cells: HEK293 (transient, jetPRIME)
As to the kind of experiment: BRET β-arrestin-2 recruitment assay. It is filed as cell-based. The settings on record: normalized to maximum recruitment of dyn A 1–13. (In general: In BRET a luciferase serves as donor, and the signal depends on an acceptor being close.)

In data set [5] the test system is motor coordination in mice. The settings on record: mouse, in vivo, ip, 5 mg/kg.
Data set [6] has as its system colonic nociceptors from CVH mice. Kind of data set: Ex vivo assessment of colonic nociceptor mechanosensitivity. More on the design: species or system mouse. The protocol: Single-unit extracellular recordings from splanchnic colonic afferent nerves were performed as previously described.[42],[43],[45],[46],[78] […] The tissue was transferred to ice-cold Krebs solution, and after further dissection, the distal colon was opened longitudinally and pinned flat with its mucosal side up in a specialized, SYLGARD 184-lined (Dow Corning Corp., Midland, MI) organ bath consisting of two adjacent, clear acrylic compartments (Danz Instrument Service, Adelaide, South Australia, Australia). The neurovascular bundle containing the splanchnic nerve was extended from the tissue compartment and laid onto a mirror in the recording compartment. A movable wall with a small “mouse hole” was lowered into position to allow passage of the nerves, and the recording chamber was filled with paraffin oil. The colonic compartment was superfused with a modified Krebs solution (117.9 mM NaCl, 4.7 mM KCl, 25 mM NaHCO3, 1.3 mM NaH2PO4, 1.2 mM MgSO4(H2O)7, 2.5 mM CaCl2, and 11.1 mM D-glucose) and gassed with carbogen (95% O2 and 5% CO2) at a temperature of 34 °C. Smooth muscle activity and endogenous prostaglandins were suppressed by the addition of the L-type calcium channel antagonist nifedipine (1 μM) and prostaglandin synthesis inhibitor indomethacin (3 μM), respectively. […]

Molecules are shown by their SMILES. “And” between values parts separate entries of the source, which are not always exact repeats. Equal entries are not always repeated. “Also recorded” adds a separate entry of the source. Bridge positions count the residues as written; N and C are the ends. Square brackets hold non-standard residues; d marks the D form. Peptide text beside a SMILES is read from it. Where only a bound is given, the exact number is not on record here.

Usually Emax stands for the size of the effect at its maximum, as opposed to the concentration needed. The Ki is a measure of affinity in units of concentration, obtained from inhibition or displacement.

For `CC[C@H](C)[C@H](NC(=O)[C@H](CCCN=C(N)N)NC(=O)[C@H](CCCN=C(N)N)NC(=O)[C@H](CC(C)C)NC(=O)[C@H](Cc1ccccc1)NC(=O)CNC(=O)CNC(=O)[C@@H](N)Cc1ccc(O)cc1)C(=O)N[C@@H](CCCN=C(N)N)C(=O)N1CCC[C@H]1C(=O)N[C@@H](CCCCN)C(=O)N[C@@H](CC(C)C)C(=O)N[C@@H](CCCCN)C(N)=O` [dyn A 1–13], the “degradation in simulated gastric fluid (in words)” value in data set [1] is on record as “fully degraded after 15 min”. Turning to `CC[C@H](C)[C@@H]1NC(=O)[C@H](CCCNC(=N)N)NC(=O)[C@H](CCCNC(=N)N)NC(=O)[C@H](CC(C)C)NC(=O)[C@H](Cc2ccccc2)NC(=O)CNC(=O)CNC(=O)[C@H](Cc2ccc(O)cc2)NC(=O)[C@@H]2CSSC[C@H](NC(=O)[C@H](CCCCN)NC(=O)[C@H](CC(C)C)NC(=O)[C@H](CCCCN)NC(=O)[C@@H]3CCCN3C(=O)[C@H](CCCNC(=N)N)NC1=O)C(=O)N[C@@H](Cc1ccccc1)C(=O)N1CCC[C@H]1C(=O)N[C@@H](CC(=O)O)C(=O)NCC(=O)N[C@@H](CCCNC(=N)N)C(=O)N2` [helianorphin-1], in data set [2], the “KOR activation in cAMP assay (in words)” value is recorded as “fully activated the receptor” and the maximum response (Emax) amounted to 106 ± 8.4%. As to `CC[C@H](C)[C@@H]1NC(=O)[C@H](CCCNC(=N)N)NC(=O)[C@H](CCCNC(=N)N)NC(=O)[C@H](CC(C)C)NC(=O)[C@H](Cc2ccccc2)NC(=O)CNC(=O)CNC(=O)[C@H](Cc2ccc(O)cc2)NC(=O)[C@@H]2CSSC[C@H](NC(=O)[C@H](CCCCN)NC(=O)[C@H](CC(C)C)NC(=O)[C@H](CCCCN)NC(=O)[C@@H]3CCCN3C(=O)[C@H](CCCNC(=N)N)NC1=O)C(=O)N[C@@H]([C@@H](C)O)C(=O)N[C@@H](CCCCN)C(=O)N[C@@H](CO)C(=O)N[C@@H]([C@@H](C)CC)C(=O)N1CCC[C@H]1C(=O)N1CCC[C@H]1C(=O)N[C@@H]([C@@H](C)CC)C(=O)N2` [helianorphin-2] (cyclo(CTKSIPPICYGGFLRRIRPKLK); disulfide 1-9), in data set [2], the “KOR activation in cAMP assay (in words)” value is “fully activated the receptor” and the Emax came out at 102 ± 10%.

Turning to `CC[C@H](C)[C@@H]1NC(=O)[C@H](CCCNC(=N)N)NC(=O)[C@H](CCCNC(=N)N)NC(=O)[C@H](CC(C)C)NC(=O)[C@H](Cc2ccccc2)NC(=O)CNC(=O)CNC(=O)[C@H](Cc2ccc(O)cc2)NC(=O)[C@@H]2CSSC[C@H](NC1=O)C(=O)N[C@@H](Cc1ccccc1)C(=O)N1CCC[C@H]1C(=O)N[C@@H](CC(=O)O)C(=O)NCC(=O)N[C@@H](CCCNC(=N)N)C(=O)N2` [helianorphin-3], the maximal effect (Emax) in data set [2] turned out to be 85.1 ± 1.8%. The same measure, in the same setting: under `CC[C@H](C)[C@@H]1NC(=O)[C@H](CCCNC(=N)N)NC(=O)[C@H](CCCNC(=N)N)NC(=O)[C@H](CC(C)C)NC(=O)[C@H](Cc2ccccc2)NC(=O)CNC(=O)CNC(=O)[C@H](Cc2ccc(O)cc2)NC(=O)[C@@H]2CSSC[C@H](NC1=O)C(=O)N[C@@H]([C@@H](C)O)C(=O)N[C@@H](CCCCN)C(=O)N[C@@H](CO)C(=O)N[C@@H]([C@@H](C)CC)C(=O)N1CCC[C@H]1C(=O)N1CCC[C@H]1C(=O)N[C@@H]([C@@H](C)CC)C(=O)N2` [helianorphin-4] (cyclo(CTKSIPPICYGGFLRRI); disulfide 1-9) stands 87.8 ± 33%. Consider `CC[C@H](C)[C@@H]1NC(=O)[C@H](CCCNC(=N)N)NC(=O)[C@H](CC(C)C)NC(=O)[C@H](Cc2ccccc2)NC(=O)CNC(=O)CNC(=O)[C@H](Cc2ccc(O)cc2)NC(=O)[C@@H]2CSSC[C@H](NC1=O)C(=O)N[C@@H](Cc1ccccc1)C(=O)N1CCC[C@H]1C(=O)N[C@@H](CC(=O)O)C(=O)NCC(=O)N[C@@H](CCCNC(=N)N)C(=O)N2` [helianorphin-5] (cyclo(CFPDGRCYGGFLRI); disulfide 1-7), for which the Ki in data set [3] was more than 10 µM. On to `CC(C)C[C@@H]1NC(=O)[C@H](Cc2ccccc2)NC(=O)CNC(=O)CNC(=O)[C@H](Cc2ccc(O)cc2)NC(=O)[C@H]([C@@H](C)O)NC(=O)[C@@H]2CSSC[C@H](NC(=O)[C@H](CCCNC(=N)N)NC1=O)C(=O)N[C@@H](Cc1ccccc1)C(=O)N1CCC[C@H]1C(=O)N[C@@H](CC(=O)O)C(=O)NCC(=O)N[C@@H](CCCNC(=N)N)C(=O)N2` [helianorphin-6] (cyclo(CFPDGRCTYGGFLR); disulfide 1-7), for which, in data set [3], the Ki is more than 10 µM.

On to `CC[C@H](C)[C@@H]1NC(=O)[C@@H]2CCCN2C(=O)[C@@H]2CCCN2C(=O)[C@H]([C@@H](C)CC)NC(=O)[C@H](CO)NC(=O)[C@H](C)NC(=O)[C@H]([C@@H](C)O)NC(=O)[C@@H]2CSSC[C@H](NC1=O)C(=O)N[C@@H](Cc1ccc(O)cc1)C(=O)NCC(=O)NCC(=O)N[C@@H](Cc1ccccc1)C(=O)N[C@@H](CC(C)C)C(=O)N[C@@H](CCCNC(=N)N)C(=O)N2` [helianorphin-7] (cyclo(ASIPPICYGGFLRCT); disulfide 7-14), for which the Ki in data set [3] was more than 10 µM. On the same count and under the same terms, under `CC[C@H](C)[C@@H]1NC(=O)[C@@H]2CCCN2C(=O)[C@@H](CCCCN)NC(=O)[C@@H](CC(C)C)NC(=O)[C@@H](Cc2ccccc2)NC(=O)[C@@H](Cc2ccccc2)NC(=O)[C@H]([C@@H](C)O)NC(=O)[C@@H]2CSSC[C@H](NC1=O)C(=O)N[C@@H](Cc1ccccc1)C(=O)N1CCC[C@H]1C(=O)N[C@@H](CC(=O)O)C(=O)NCC(=O)N[C@@H](CCCNC(=N)N)C(=O)N2` [helianorphin-10] (cyclo(CFPDGRCT[dF][dF][dL][dK]PI); disulfide 1-7) stands more than 10 µM. Consider `CCCC[C@H]1NC(=O)[C@@H](Cc2ccccc2)NC(=O)[C@@H](Cc2ccccc2)NC(=O)[C@H]([C@@H](C)O)NC(=O)[C@@H]2CSSC[C@H](NC(=O)[C@H]([C@@H](C)CC)NC(=O)[C@@H]3CCCN3C(=O)[C@@H](CCCNC(=N)N)NC1=O)C(=O)N[C@@H](Cc1ccccc1)C(=O)N1CCC[C@H]1C(=O)N[C@@H](CC(=O)O)C(=O)NCC(=O)N[C@@H](CCCNC(=N)N)C(=O)N2` [helianorphin-12], for which, in data set [2], the “KOR activation in cAMP assay (in words)” value was “fully activates the KOR” and the maximum response (Emax) was determined as 117 ± 12%. Take `CC[C@H](C)[C@@H]1NC(=O)[C@@H]2CSSC[C@H](NC(=O)[C@H](CCCCN)NC(=O)[C@H](CC(C)C)NC(=O)[C@H](CCCCN)NC(=O)[C@@H]3CCCN3C(=O)[C@H](CCCNC(=N)N)NC1=O)C(=O)N[C@@H](Cc1ccc(O)cc1)C(=O)NCC(=O)NCC(=O)N[C@@H](Cc1ccccc1)C(=O)N[C@@H](CC(C)C)C(=O)N[C@@H](CCCNC(=N)N)C(=O)N[C@@H](CCCNC(=N)N)C(=O)N2` [helianorphin-19] (cyclo(CIRPKLKCYGGFLRR); disulfide 1-8): the Emax in data set [2] stood at 108 ± 11%. For the same compound, the “β-arrestin-2 recruitment Emax” value in data set [4] was 41.1 ± 3.7% and 41%. Also, the “rotarod performance (latency to fall)” value in data set [5] is given as “did not impair rotarod performance”. Consider `Oc1ccc2c3c1O[C@H]1c4[nH]c5c(c4C[C@@]4(O)[C@@H](C2)N(CC2CC2)CC[C@]314)C[C@@]1(O)[C@H]2Cc3ccc(O)c4c3[C@@]1(CCN2CC1CC1)[C@H]5O4` [nor-BNI, norbinaltorphimine], for which the “effect on helianorphin-19-induced inhibition of colonic nociceptor mechanosensitivity” value in data set [6] (0.1 μM nor-BNI plus 1 μM helianorphin-19) was “prevented helianorphin-19-induced inhibition of colonic nociceptor mechanosensitivity; also recorded: did block helianorphin-19 (1 μM)-induced inhibition of colonic nociceptor action potential firing”. Also, the “colonic nociceptor mechanosensitivity, antagonist alone” value in data set [6] (0.1 μM, 5 min pre-incubation) is “did not affect CVH colonic nociceptor responses to mechanical stimuli; also recorded: did not affect nociceptor mechanosensitivity”.

The record behind these values is paper PMC8273886 (Journal of Medicinal Chemistry, 2021).
